Data from patent US20120165319A1, “INHIBITORS OF INTERLEUKIN-1 BETA CONVERTING ENZYME” (VERTEX PHARMACEUTICALS INCORPORATED, priority 1995, published 2012).

Legend:
[1] = Measurement of blood levels of prodrugs of 214e after p.o. dosing in mice; format: in vivo, mouse; settings: p.o. 50 mg/kg in 0.5% carboxymethylcellulose, blood at 1 and 7 hours
Protocol: Measurement of Blood Levels of Prodrugs of 214e
Mice were administered a p.o. dose of compounds 302 and 304a (50 mg/kg) prepared in 0.5% carboxymethylcellulose. Blood samples were collected at 1 and 7 hours after dosing. Serum was extracted by precipitation with an equal volume of acetonitrile containing 2% formic acid followed by centrifugation. The supernatant was analyzed by liquid chromatography-mass spectrometry (ESI-MS) with a detection level of 0.03 to 3 μg/ml.

[2] = biological target: T1, ICE (Homo sapiens, UniProt P29466); test: Enzyme assay with UV-visible substrate (visible ICE assay, Succinyl-Tyr-Val-Ala-Asp-pNitroanilide); format: biochemical; settings: Table 5
T1 sequence (P29466 120-297 limits assumed): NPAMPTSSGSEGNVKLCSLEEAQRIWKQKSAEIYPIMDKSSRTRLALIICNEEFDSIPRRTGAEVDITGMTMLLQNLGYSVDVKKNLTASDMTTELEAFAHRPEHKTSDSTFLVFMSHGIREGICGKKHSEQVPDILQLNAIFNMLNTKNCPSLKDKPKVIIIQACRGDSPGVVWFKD
T1 sequence (P29466 317-404 limits assumed): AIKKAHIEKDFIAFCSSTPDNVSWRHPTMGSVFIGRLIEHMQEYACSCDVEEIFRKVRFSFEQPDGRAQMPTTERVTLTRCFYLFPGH
How it was run: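 ICE preincubated with inhibitor in DMSO for 15 min at room temperature, then Suc-Tyr-Val-Ala-Asp-pNA added. pNA release read at 405-603 nm for 20 min at 37 °C, rate from linear fit in mOD/min. Ki and inhibition mode from fits of rates at varying inhibitor concentrations to standard kinetic equations.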

[3] = system: IL-1β production, LPS-challenged mice; test: In vivo acute assay for efficacy as anti-inflammatory agent: LPS-induced IL-1β production in mice; set-up: species or system mouse; settings: LPS challenged mice, PO, 50 mg/kg; * = values obtained in subsequent assays (Table 4)
How it was run: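 CD1 mice (n=6) were challenged with LPS 20 mg/kg IP and given compound IP in olive oil:DMSO:ethanol (90:5:5) 1 h after LPS, or at the time of challenge for some analogs. Blood was taken 7 h after LPS and serum IL-1β was measured by ELISA. Oral gavage at 50 mg/kg was also tested.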

[4] = system: IL-1β, human peripheral blood mononuclear cells (PBMC); test: PBMC cell assay: IL-1β assay with human PBMC or enriched adherent mononuclear cells, LPS-stimulated; format: cell-based; settings: Homo sapiens, PBMC, * = values obtained upon reassay
How it was run: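 Buffy-coat human PBMC at 6×10^6 cells/ml, or adherent monocytes enriched by 1 h adherence (2.5−3.0×10^5 cells/well), are given 5–6 compound dilutions bracketing the ICE Ki (final DMSO 0.1%) plus LPS at a final 5 ng/ml. They are incubated 16–18 hr at 37 °C, 5% CO2, and supernatant mature IL-1β is measured by ELISA, with duplicate cultures and duplicate ELISAs.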

[5] = system: IL-1β, human PBMC; test: Human PBMC assay (Example 27): IL-1β production; format: cell-based; settings: LPS-stimulated human PBMCs (FIG. 5); read-out: IC50, decrease of IL-1β production
Protocol: (§1) Since the processing and secretion of biologically active IGIF is mediated by ICE, we compared the activity of a reversible ICE inhibitor (Ac-YVAD-CHO) on IL-1β and IFN-γ production in a peripheral blood mononuclear cell (PBMC) assay (Examples 27).
(§2) Human buffy coat cells were obtained from blood donors and peripheral blood mononuclear cells (PBMC) were isolated by centrifugation in LeukoPrep tubes (Becton-Dickinson, Lincoln Park, N.J.). PBMC were added (3×10^6/well) to 24 well Corning tissue culture plates and after 1 hr incubation at 37° C., non-adherent cells were removed by gently washing. Adherent mononuclear cells were stimulated with LPS (1 μg/ml) with or without ICE inhibitor in 2 ml RPMI-1640-10% FBS. After 16-18 hr incubation at 37° C., IGIF and IFN-γ were quantitated in culture supernatants by ELISA.

[6] = system: IFN-γ, human PBMC; test: Human PBMC assay (Example 27): IFN-γ production; format: cell-based; settings: LPS-stimulated human PBMCs (FIG. 5); read-out: IC50, decrease of IFN-γ production
Protocol: as §1, §2

Compound	blood levels when administered orally (in words) [1]	Ki [2]	Inhibition of IL-1β Production, compound administered 0 hr relative to LPS challenge [3]	Inhibition of IL-1β Production, compound administered +1 hr relative to LPS challenge [3]	Inhibition of IL-1β Production, compound administered −1 hr relative to LPS challenge [3]	Inhibition of IL-1β Production, compound administered −2 hr relative to LPS challenge [3]	IC50 [4]	IC50 [5]	IC50 [6]
COC1OC(=O)C[C@@H]1NC(=O)[C@@H]1CCCN2C(=O)CC[C@H](NC(=O)c3ccccc3)C(=O)N12 (stereo partly drawn) [Compound 304a, [1S,9S (2RS,3S)]9-Benzoylamino-6,10-dioxo-1,2,3,4,7,8,9,10-octahydro-N-(2-methoxy-5-oxo-tetrahydro-furan-3-yl)-6H-pyridazino[1,2-a][1,2]diazapine-1-carboxamide]	detectable blood levels	0.2 µM	68%	37%	33%	30%	1.4 µM	–	–
AcYVAD-CHO [Ac-YVAD-CHO, reference compound]	–	–	–	–	–	–	–	2.5 µM	2.5 µM
